± gives the standard deviation of the averaged measurements.
System: HepaRG
Assay: LDH release cytotoxicity, % of total lysis control; higher = more cytotoxic
Conditions: 48 h
Method in brief: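 The CytoTox-ONE kit was used to read LDH in 50 µL spent medium as resorufin fluorescence on a Tecan Safire, with 0.1% Triton X added to total lysis wells. Beforehand, single-lot HepaRG cells on collagen I-coated 96-well plates had been exposed in duplicate for 48 h to eight-point half-log series (top 100 µM) in serum-free induction medium containing 0.5% DMSO. Percent cytotoxicity was normalized against on-plate vehicle and total lysis controls and averaged over duplicates.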

Structure (SMILES) | LDH release cytotoxicity (0.1 µM) [%] | LDH release cytotoxicity (1 µM) [%] | LDH release cytotoxicity (3.16228 µM) [%] | LDH release cytotoxicity (10 µM) [%] | LDH release cytotoxicity (31.6228 µM) [%] | LDH release cytotoxicity (100 µM) [%] | LDH release cytotoxicity (0.03162 µM) [%] | LDH release cytotoxicity (0.3162278 µM) [%] | other results
CC(C)(C)c1csc(-c2cc3cc(OCc4ccccc4CC(=O)O)ccc3o2)n1 | -2.14 ± 0.54 | -2.18 ± 0.68 | -2.37 ± 0.089 | -3.649 ± 0.015 | -2.7 ± 0.72 | 64 ± 7 |  |  | LDH release cytotoxicity (0.031623 µM): 1.06 ± 0.28%; LDH release cytotoxicity (0.316228 µM): -2.66 ± 0.65%
COC1C(OC(=O)NC(=O)CCl)CCC2(CO2)C1C1(C)OC1CC=C(C)C (configuration not stated) [o-(Chloroacetylcarbamoyl)fumagillol] |  |  |  |  |  |  |  |  | LDH release cytotoxicity (0.01012 µM): -1.03 ± 1.5%; LDH release cytotoxicity (0.032 µM): -2.16 ± 1.1%; LDH release cytotoxicity (0.101193 µM): -2.32 ± 0.23%; LDH release cytotoxicity (0.32 µM): -2.5 ± 0.28%; LDH release cytotoxicity (1.01193 µM): -1.78 ± 0.47%; LDH release cytotoxicity (3.2 µM): -1.64 ± 0.6%; LDH release cytotoxicity (10.1193 µM): -0.944 ± 0.11%; LDH release cytotoxicity (32 µM): 0.233 ± 0.59%
CCCOC(=O)c1cc(O)c(O)c(O)c1 [Propyl gallate] | -3.35 ± 1.2 | -4.27 ± 0.64 | -3.65 ± 0.077 | -3.8 ± 0.18 | -4.52 ± 0.15 | -3.34 ± 1.5 |  |  | LDH release cytotoxicity (0.031623 µM): 0.488 ± 2.3%; LDH release cytotoxicity (0.316228 µM): -3.75 ± 0.63%
COCC(C)OCC(C)O (configuration not stated) [Dipropylene glycol monomethyl ether] | -1.92 ± 0.76 | -1.8 ± 0.051 | -1.39 ± 0.54 | -0.852 ± 0.24 | 0.852 ± 0.72 | 0.163 ± 0.47 | -1.67 ± 0.049 | -1.46 ± 0.17 | 
CCCSP(=O)(OCC)SCCC [Ethoprop] |  |  |  |  |  |  |  |  | LDH release cytotoxicity (0.0325715 µM): -0.633 ± 0.18%; LDH release cytotoxicity (0.103 µM): -0.669 ± 0.35%; LDH release cytotoxicity (0.325715 µM): -0.697 ± 0.094%; LDH release cytotoxicity (1.03 µM): -0.356 ± 0.87%; LDH release cytotoxicity (3.25715 µM): -0.537 ± 0.42%; LDH release cytotoxicity (10.3 µM): -0.345 ± 0.28%; LDH release cytotoxicity (32.5715 µM): 0.55 ± 0.93%; LDH release cytotoxicity (103 µM): 2.97 ± 0.41%
CCOP(=O)(SC(C)CC)N1CCSC1=O (configuration not stated) [Fosthiazate] | -0.335 ± 0.79 | -0.0276 ± 1 | -0.262 ± 0.11 | -0.389 ± 0.35 | -0.432 ± 0.8 | 0.843 ± 0.36 | -0.419 ± 0.44 | -0.582 ± 0.46 | 
CNC(C)=O [N-Methylacetamide] | -0.843 ± 0.23 | -2.12 ± 0.12 | -2.26 ± 0.74 | -2.1 ± 0.54 | -2.47 ± 0.73 | 34 ± 4.3 | -1.43 ± 0.55 | -1.8 ± 0.64 | 
NC(N)=O [Urea] | -0.896 ± 0.18 | -1.62 ± 0.5 | -0.792 ± 0.012 | -0.693 ± 0.13 | -1.24 ± 0.23 | 1.24 ± 0.49 | -1.69 ± 0.59 | -1.17 ± 0.012 | 
CCCCCCCCCCCCCCCCO [1-Hexadecanol] |  |  |  |  |  |  |  |  | LDH release cytotoxicity (0.0320971 µM): -2.16 ± 0.6%; LDH release cytotoxicity (0.1015 µM): -2.95 ± 0.21%; LDH release cytotoxicity (0.320971 µM): -2.48 ± 0.093%; LDH release cytotoxicity (1.015 µM): -3.51 ± 0.26%; LDH release cytotoxicity (3.2097118 µM): -3.1 ± 0.27%; LDH release cytotoxicity (10.15 µM): -2.1 ± 0.81%; LDH release cytotoxicity (32.0971 µM): -1.56 ± 0.39%; LDH release cytotoxicity (101.5 µM): 3.36 ± 0.21%
CCSC(=O)N(CC)C1CCCCC1 [Cycloate] | -0.297 ± 0.34 | -0.678 ± 0.68 | 0.089 ± 0.45 | 0.922 ± 0.035 | 0.446 ± 0.0094 | 1.91 ± 0.022 | -0.645 ± 0.33 | -0.471 ± 0.49 | 
CCOC(=O)COc1cc(-c2nn(C)c(OC(F)F)c2Cl)c(F)cc1Cl [Pyraflufen-ethyl] | -2.14 ± 0.14 | -0.96 ± 1.1 | -1.01 ± 0.6 | -0.751 ± 0.049 | 0.45 ± 0.72 | 1.13 ± 1.6 | 0.0981 ± 1.6 | -0.894 ± 0.076 | 
COP(=S)(OC)Oc1ccc(SC)c(C)c1 [Fenthion] | -0.733 ± 0.38 | -0.217 ± 1 | -0.561 ± 0.56 | 0.173 ± 0.094 | 0.52 ± 0.028 | 2.37 ± 0.83 | -0.428 ± 0.68 | -0.879 ± 0.25 | 
C=CCC1=C(C)C(OC(=O)C2C(C=C(C)C)C2(C)C)CC1=O (configuration not stated) [S-Bioallethrin] |  |  |  |  |  |  |  |  | LDH release cytotoxicity (0.0147 µM): -2.51 ± 0.52%; LDH release cytotoxicity (0.0465 µM): -1.46 ± 0.56%; LDH release cytotoxicity (0.147046 µM): -1.76 ± 0.23%; LDH release cytotoxicity (0.465 µM): -2.13 ± 0.17%; LDH release cytotoxicity (1.4704591 µM): -1.73 ± 0.45%; LDH release cytotoxicity (4.65 µM): -1.51 ± 0.71%; LDH release cytotoxicity (14.7046 µM): -0.957 ± 0.95%; LDH release cytotoxicity (46.5 µM): 0.422 ± 0.55%
CC(O)CO (configuration not stated) [1,2-Propylene glycol] | -0.939 ± 1.1 | -1.94 ± 0.42 | -1.55 ± 0.095 | -1.06 ± 0.055 | -1.08 ± 0.23 | 0.548 ± 0.21 | -1.3 ± 0.42 | -1.49 ± 0.33 | 
COCc1cnc(C2=NC(C)(C(C)C)C(=O)N2)c(C(=O)O)c1 (configuration not stated) [Imazamox] | -1.71 ± 1.1 | -1.73 ± 0.34 | -1.43 ± 0.53 | -1.49 ± 0.15 | -2 ± 0.16 | -0.764 ± 0.39 | -0.37 ± 0.36 | -1.61 ± 0.19 | 
C1N2CN3CN1CN(C2)C3 [Methenamine] |  |  |  |  |  |  |  |  | LDH release cytotoxicity (0.0322552 µM): -1.06 ± 0.69%; LDH release cytotoxicity (0.102 µM): -1.56 ± 0.28%; LDH release cytotoxicity (0.322552 µM): -1.99 ± 0.53%; LDH release cytotoxicity (1.02 µM): -2.63 ± 0.35%; LDH release cytotoxicity (3.2255232 µM): -1.7 ± 0.047%; LDH release cytotoxicity (10.2 µM): -1.59 ± 0.085%; LDH release cytotoxicity (32.2552 µM): -1.01 ± 0.47%; LDH release cytotoxicity (102 µM): 0.286 ± 0.11%
c1ccc(NNc2ccccc2)cc1 [1,2-Diphenylhydrazine] | -1.5 ± 0.65 | -2.09 ± 1.2 | -1.82 ± 0.17 | -1.49 ± 0.079 | -1.72 ± 0.59 | -0.591 ± 1 | -1.61 ± 1.4 | -1.76 ± 0.62 | 
Cc1cn(C2C=CC(CO)O2)c(=O)[nH]c1=O (configuration not stated) [Stavudine] | -0.277 ± 0.41 | 0.024 ± 0.42 | -0.127 ± 0.0047 | 0.3 ± 1.1 | 0.433 ± 0.49 | 2.36 ± 0.35 | -0.726 ± 0.35 | 0.0542 ± 0.56 | 
CN(C)c1ccccc1 [N,N-Dimethylaniline] |  |  |  |  |  |  |  |  | LDH release cytotoxicity (0.030516 µM): -0.91 ± 0.26%; LDH release cytotoxicity (0.0965 µM): -1.79 ± 0.17%; LDH release cytotoxicity (0.30516 µM): -1.99 ± 0.44%; LDH release cytotoxicity (0.965 µM): -2.41 ± 0.19%; LDH release cytotoxicity (3.0515979 µM): -1.849 ± 0.013%; LDH release cytotoxicity (9.65 µM): -1.69 ± 0.57%; LDH release cytotoxicity (30.516 µM): -2.11 ± 1.2%; LDH release cytotoxicity (96.5 µM): -0.103 ± 1.2%
CC1COC(Cn2cncn2)(c2ccc(Oc3ccc(Cl)cc3)cc2Cl)O1 (configuration not stated) [Difenoconazole] | -1.4 ± 0.88 | -1.47 ± 0.12 | -0.57 ± 1.1 | -0.701 ± 0.24 | -1.41 ± 0.25 | -0.14 ± 0.82 | -1.39 ± 1.3 | -1.37 ± 0.096 | 
O=C(NS(=O)(=O)C=Cc1cccs1)c1ccc(F)cc1Br | -1.47 ± 0.055 | -2.27 ± 0.8 | -1.8 ± 0.55 | -1.418 ± 0.0065 | -0.73 ± 0.11 | -0.319 ± 0.11 | -1.33 ± 0.59 | -1.39 ± 0.25 | 
COc1ccc(C=CS(=O)(=O)NC(=O)c2ccc(C)cc2Cl)cc1 | -1.99 ± 0.4 | -1.597 ± 0.014 | -1.41 ± 0.3 | -1.42 ± 0.38 | -0.383 ± 0.54 | 1.21 ± 0.62 | -1.21 ± 0.38 | -1.66 ± 0.63 | 
CCC(C)C(=O)OC1CC(C)C=C2C=CC(C)C(CCC3CC(O)CC(=O)O3)C21 (configuration not stated) [Lovastatin] | -2.24 ± 2.7 | -3.8 ± 0.94 | -3.98 ± 0.75 | -3.52 ± 0.1 | -3.4 ± 0.086 | 1.06 ± 0.76 |  |  | LDH release cytotoxicity (0.031623 µM): -0.879 ± 0.35%; LDH release cytotoxicity (0.316228 µM): -3.24 ± 1.1%
CCC(=O)OC1CCC2C3CCC4=CC(=O)CCC4(C)C3CCC12C (configuration not stated) [Testosterone propionate] | -0.545 ± 0.63 | -1.85 ± 0.12 | -1.06 ± 0.29 | -1.07 ± 0.27 | -0.42 ± 0.67 | -0.461 ± 0.24 | -1.39 ± 0.61 | -1.1 ± 0.026 | 
CN(C)N=O [N-Nitrosodimethylamine] |  |  |  |  |  |  |  |  | LDH release cytotoxicity (0.02893 µM): 0.0505 ± 1.7%; LDH release cytotoxicity (0.0915 µM): -1.57 ± 0.31%; LDH release cytotoxicity (0.289348 µM): -0.817 ± 0.056%; LDH release cytotoxicity (0.915 µM): -1.29 ± 0.63%; LDH release cytotoxicity (2.89348 µM): -2.32 ± 1.1%; LDH release cytotoxicity (9.15 µM): -0.967%; LDH release cytotoxicity (28.9348 µM): -0.682 ± 0.11%; LDH release cytotoxicity (91.5 µM): 0.3 ± 0.0093%
CCCC(=O)OCCC(C)C [Isopentyl butyrate] | -0.72 ± 1.4 | -0.671 ± 1.2 | 0.184 ± 1.4 | 0.168 ± 0.62 | 0.438 ± 0.51 | 1.65 ± 0.66 | 0.497 ± 0.0082 | -0.446 ± 0.5 | 
CCC(=C(c1ccccc1)c1ccc(OCCN(C)C)cc1)c1ccccc1 [Tamoxifen] | -0.968 ± 0.65 | -2.26 ± 0.5 | -0.69 ± 0.34 | -0.919 ± 0.7 | 4.6 ± 0.9 | 79.7 ± 1.2 | -1.09 ± 0.46 | -1.82 ± 0.89 | 
Cc1ccccc1N [2-Methylaniline] | -0.736 ± 0.52 | -0.759 ± 0.47 | -1.37 ± 0.23 | -0.264 ± 0.12 | -0.213 ± 0.19 | 0.285 ± 0.61 | -1.2 ± 0.49 | -0.698 ± 0.12 | 
Cc1[nH]nc2c1N=C(c1ccccc1Cl)c1cc([N+](=O)[O-])ccc1N2 | -1.12 ± 0.7 | 2.66 ± 0.69 | 5.42 ± 0.45 | 4.54 ± 0.36 | 7.8 ± 1.1 | 40.5 ± 3.8 | -0.496 ± 0.19 | -0.522 ± 0.35 | 
